Data as given in patent US20240123249A1, “ANALGESIA VIA LOW AND ULTRA-LOW FREQUENCY MAGNETIC OR ELECTROMAGNETIC FIELDS AND RELATED SYSTEMS AND METHODS” (EMulate Therapeutics, Inc., priority 2022, published 2024).

Experiments:
mechanical hyperalgesia = assay: Carrageenan induced mechanical hyperalgesia, paw pressure test (Randall & Selitto); assay type: in vivo, rat
cold allodynia = assay: Oxaliplatin induced neuropathic cold allodynia, paw immersion test; conditions: rat, in vivo
tactile allodynia = assay: Bennett model of peripheral mononeuropathy, tactile allodynia by electronic Von Frey; assay type: in vivo, rat
[1] = 30 minutes after morphine 3 mg/kg / 24 hours after signal exposure
[2] = pair-wise Students T-test, α=0.01

Which “applied pressure, carrageenan injected (injured) paw” value (mechanical hyperalgesia; 3 h after 2% carrageenan, signals 24 h exposure, Indomethacin 30 mg/kg, MC 1% group 218±18) does the source give for `COc1ccc2c(c1)c(CC(=O)O)c(C)n2C(=O)c1ccc(Cl)cc1` [Indomethacin] here?
The value was 306±21 grams.

What about the “Carrageenan: statistical significance (P) versus MC 1% group, injured paw” value (mechanical hyperalgesia; Dunnett's test after ANOVA, N=10) of the same molecule?
Its value is 0.01.

What about the “Carrageenan model: significance versus MC 1% group, uninjured paw” value (mechanical hyperalgesia; left paw not injected with carrageenan, Dunnett's test) of the same molecule?
Its value is “no significant differences between groups in the uninjured paws, except in the Indomethacin injected group”.

`CNCC[C@H](Oc1cccc2ccccc12)c1cccs1` [duloxetine] was tested. Which “Oxaliplatin: statistical significance (P) versus MC 1% control group” value (cold allodynia) did it give?
Its value is “significantly increased”.

And the “leg withdrawal time (latency of hind paw withdrawal)” value (cold allodynia)?
Its value is 13.2 ± 1.6 s.

With `CN1CC[C@]23c4c5ccc(O)c4O[C@H]2[C@@H](O)C=C[C@H]3[C@H]1C5` [morphine] as the molecule, how does the “average force applied, control paw, Post-Tx” value (tactile allodynia; [1]) read?
The value was 578±73 grams.

And the “average force applied, injured paw, Post-Tx” value (tactile allodynia; [1])?
Its value is 438±51 grams.

What about the “average force applied, control paw, Pre-Tx” value (tactile allodynia; before treatment) of the same molecule?
Its value is 300±30 grams.

And the “average force applied, injured paw, Pre-Tx” value (tactile allodynia; before treatment)?
Its value is 180±27 grams.

What about the “Bennett: statistical significance (P) Pre-Tx vs. Post-Tx, Control Paw” value (tactile allodynia; [2]) of the same molecule?
Its value is under 0.00001.

What about the “Bennett: statistical significance (P) Pre-Tx vs. Post-Tx, Injured Paw” value (tactile allodynia; [2]) of the same molecule?
Its value is “reached statistical significance”.
